# According to patent US20100113301A1, “METHOD FOR THE IDENTIFICATION AND/OR THE QUANTIFICATION OF A TARGET COMPOUND OBTAINED FROM A BIOLOGICAL SAMPLE UPON CHIPS” (Eppendorf Array Technologies, priority 1999, published 2010):
# Several values for one entry are separate records, joined by “and”; a condition that tells them apart may be missing. Equal entries are not always repeated.
# Test system: Rat Liver Gene Expression
# Assay: Rat liver gene expression on Rat HepatoChips microarrays, colorimetric silver detection
# Settings: liver mRNA of treated rat, 100 mg/kg per day orally for 4 days, raw spot intensity mean, 100 mg/kg/day
# Experimental: Female Sprague-Dawley CD rats (aged 10-12 weeks) were dosed orally with 100 mg/kg per day of either Sodium Phenobarbitone (PB) or pregnenalone 16-carbonitrile (PCN) (Sigma-Aldrich Co. Poole, Dorset, UK) for 4 days. Control animals received corresponding quantities (5 ml/kg body weight) of the 0.56% (w/v) gum tragacanth vehicle. Animals were killed by decapitation and the livers immediately removed for further mRNA extraction.
# The arrays also include positive and negative controls for the hybridization process, an internal standard control and 8 housekeeping genes.
# The Rat HepatoChips is composed of single strand DNA probes attached to the glass by a covalent link. The length of the DNA nucleotide sequences has been optimized. They are the same for all genes and are located near the 3′ end of the transcript. All probes have been designed to be gene specific and have been prepared using rat cDNAs.
# Labeled cDNA was prepared using 2 μg mRNA isolated using the FastTrack 2.0 mRNA isolation Kit (Invitrogen). A synthetic poly (A)+tailed mRNA was spiked to the purified mRNA as internal standard to assist in quantification and estimation of experimental variation introduced during labeling and reading. mRNA was added to 2 μl of oligo dT(12-18) primer (0.5 μg/ul) (Gibco BRL), RNase free water was used to bring the volume to 9 μl, and the mixture was denatured at 70° C. for 10 min and then chilled on ice for 5 min. The reverse transcription was performed by adding the following components to the annealed probe/template on ice: 4 μl of First Strand Buffer (250 mM Tris-HCl pH 8.3, 375 mM KCl, 15 mM MgCl2) (Gibco BRL), 2 ul of DTT 0.1 M (Gibco BRL), 40 units of RNasin ribonuclease inhibitor (Promega), 500 μM dATP (Roche), 500 μM dTTP (Roche), 500 μM dGTP (Roche), 80 μM dCTP (Roche), 80 μM biotin-1′-dCTP (NEN). The reaction mixture was mixed gently by flicking the tube and incubated for 5 min at room temperature. 300 units of SuperScript II RT (RNase H—) (Gibco BRL) was added to the reaction mixture and the reverse transcription was allowed to proceed for 90 min at 42° C. Then an additional 300 units of SuperScript II RT was added and incubation was continued at 42° C. for another 90 min. The reaction was ended by heat inactivation at 70° C. for 15 min. To remove RNA complementary to the cDNA, a treatment with RNase H was performed at 37° C. for 20 min following by a heat denaturation at 95° C. for 3 minutes and cooled on ice before use. No further RT product purification was necessary.
# The hybridization was performed in a hybridization chamber (Biozym, Landgraaf, The Netherlands) containing the hybridization buffer ‘Hepatobuffer’ and a positive hybridization control (a biotinylated amplicons, at a concentration of 25 nM). Hybridization was carried out overnight at 60° C. The arrays were then washed four times for 2 min with washing buffer at room temperature.
# The presence of biotinylated hybrids on the microarray was detected using a antibody anti-biotin conjugate coupled colloidal gold. The arrays were then incubated with a 1:100 dilution of conjugate solution in a blocking buffer (100 mM maleic buffer pH 7.5, 150 mM NaCl and 0.1% milk powder) for […] at room temperature. The array were then washed five times for 2 min at room temperature, rinsed briefly with deionized water then dried. Then array is incubated at room temperature for 5 min in the Silver Blue Solution (AAT, Namur, Belgium), rinsed in water, dried 5′ at 37° C. and read with the scanner described herein.
# The scanner used had the following scanning parameters:
# Bit depth: 16 bits grayscale (65536 grey levels)
# no additional correction of the image (i.e. standard values for contrast, brightness, . . . )
# Scanning software: Silverfast from LaserSoft
# Quantification Software: Imagene 4.2 from Biodiscovery
structure (smiles),measurement,setting,value
"CCC1(c2ccccc2)C(=O)NC(=O)NC1=O [phenobarbital, Sodium Phenobarbitone]","Test Signal, ACO",gene ACO,51686 16-bits grayscale and 51619 16-bits grayscale
same,"Test Signal, Albumin",gene Albumin,63921 16-bits grayscale and 63641 16-bits grayscale
same,"Test Signal, ApoJ",gene ApoJ,52452 16-bits grayscale and 55866 16-bits grayscale
same,"Test Signal, B-actin",gene B-actin,52992 16-bits grayscale and 55039 16-bits grayscale
same,"Test Signal, Bax",gene Bax,24767 16-bits grayscale and 27814 16-bits grayscale
same,"Test Signal, Bcl-2",gene Bcl-2,21220 16-bits grayscale and 21509 16-bits grayscale
same,"Test Signal, C-jun",gene C-jun,22382 16-bits grayscale and 23523 16-bits grayscale
same,"Test Signal, C-myc",gene C-myc,27229 16-bits grayscale and 28315 16-bits grayscale
same,"Test Signal, C/EBP",gene C/EBP,31394 16-bits grayscale and 31754 16-bits grayscale
same,"Test Signal, Cox-2",gene Cox-2,20187 16-bits grayscale and 20484 16-bits grayscale
same,"Test Signal, Cyclin D1",gene Cyclin D1,25036 16-bits grayscale and 25587 16-bits grayscale
same,"Test Signal, Cyp 1a1",gene Cyp 1a1,20728 16-bits grayscale and 20972 16-bits grayscale
same,"Test Signal, Cyp 1b1",gene Cyp 1b1,22231 16-bits grayscale and 21071 16-bits grayscale
same,"Test Signal, Cyp 2b",gene Cyp 2b,62971 16-bits grayscale and 62867 16-bits grayscale
same,"Test Signal, Cyp 3a",gene Cyp 3a,63098 16-bits grayscale and 63114 16-bits grayscale
same,"Test Signal, Cyp 4a1",gene Cyp 4a1,35089 16-bits grayscale and 35673 16-bits grayscale
same,"Test Signal, Cyt oxidase 1",gene Cyt oxidase 1,63947 16-bits grayscale and 62432 16-bits grayscale
same,"Test Signal, Elk",gene Elk,20632 16-bits grayscale and 20630 16-bits grayscale
same,"Test Signal, Enoyl CoA",gene Enoyl CoA,60758 16-bits grayscale and 60738 16-bits grayscale
same,"Test Signal, Erk-1",gene Erk-1,22998 16-bits grayscale and 23360 16-bits grayscale
same,"Test Signal, Ferritin",gene Ferritin,60237 16-bits grayscale and 59913 16-bits grayscale
same,"Test Signal, Fibronectin",gene Fibronectin,47542 16-bits grayscale and 50240 16-bits grayscale
same,"Test Signal, GADD45",gene GADD45,22359 16-bits grayscale and 22287 16-bits grayscale
same,"Test Signal, GADD153",gene GADD153,23334 16-bits grayscale and 23216 16-bits grayscale
same,"Test Signal, GAPDH",gene GAPDH,58466 16-bits grayscale and 60437 16-bits grayscale
same,"Test Signal, GSH reductase",gene GSH reductase,24281 16-bits grayscale and 23937 16-bits grayscale
same,"Test Signal, Glutathione Theta 5",gene Glutathione Theta 5,30062 16-bits grayscale and 32113 16-bits grayscale
same,"Test Signal, Glutatione Ya",gene Glutatione Ya,63398 16-bits grayscale and 63872 16-bits grayscale
same,"Test Signal, HGF",gene HGF,21195 16-bits grayscale and 20996 16-bits grayscale
same,"Test Signal, HGPT",gene HGPT,26564 16-bits grayscale and 27506 16-bits grayscale
same,"Test Signal, HMG",gene HMG,34978 16-bits grayscale and 36070 16-bits grayscale
same,"Test Signal, Histone Dacetyl",gene Histone Dacetyl,21846 16-bits grayscale and 21766 16-bits grayscale
same,"Test Signal, Hox2",gene Hox2,30000 16-bits grayscale and 29975 16-bits grayscale
same,"Test Signal, Hsp 70",gene Hsp 70,23738 16-bits grayscale and 22628 16-bits grayscale
same,"Test Signal, II6",gene II6,20776 16-bits grayscale and 20646 16-bits grayscale
same,"Test Signal, IKB",gene IKB,21781 16-bits grayscale and 21227 16-bits grayscale
same,"Test Signal, JNK",gene JNK,20743 16-bits grayscale and 20935 16-bits grayscale
same,"Test Signal, MDR1",gene MDR1,27172 16-bits grayscale and 26841 16-bits grayscale
same,"Test Signal, Macroglobulin",gene Macroglobulin,32619 16-bits grayscale and 33165 16-bits grayscale
same,"Test Signal, Mgmt",gene Mgmt,23373 16-bits grayscale and 23981 16-bits grayscale
same,"Test Signal, MnSOD",gene MnSOD,26695 16-bits grayscale and 26251 16-bits grayscale
same,"Test Signal, Myr",gene Myr,22905 16-bits grayscale and 22579 16-bits grayscale
same,"Test Signal, NFKB",gene NFKB,21439 16-bits grayscale and 21343 16-bits grayscale
same,"Test Signal, ODC",gene ODC,23381 16-bits grayscale and 23303 16-bits grayscale
same,"Test Signal, P38",gene P38,26227 16-bits grayscale and 28841 16-bits grayscale
same,"Test Signal, P53",gene P53,25848 16-bits grayscale and 25221 16-bits grayscale
same,"Test Signal, PCNA",gene PCNA,23374 16-bits grayscale and 23609 16-bits grayscale
same,"Test Signal, PPAR",gene PPAR,20767 16-bits grayscale and 20704 16-bits grayscale
same,"Test Signal, Phospho A2",gene Phospho A2,21966 16-bits grayscale and 21421 16-bits grayscale
same,"Test Signal, S29",gene S29,50843 16-bits grayscale and 53202 16-bits grayscale
same,"Test Signal, Smp30",gene Smp30,32696 16-bits grayscale and 31894 16-bits grayscale
same,"Test Signal, TGFbRII",gene TGFbRII,22149 16-bits grayscale and 23021 16-bits grayscale
same,"Test Signal, TNF",gene TNF,21082 16-bits grayscale and 20767 16-bits grayscale
same,"Test Signal, Telomerase",gene Telomerase,23256 16-bits grayscale and 22745 16-bits grayscale
same,"Test Signal, Transferrin",gene Transferrin,61525 16-bits grayscale and 61527 16-bits grayscale
same,"Test Signal, Tubulin",gene Tubulin,36262 16-bits grayscale and 36054 16-bits grayscale
same,"Test Signal, UDPGT1a6",gene UDPGT1a6,22769 16-bits grayscale and 22766 16-bits grayscale
same,"Test Signal, UDPGT1a",gene UDPGT1a,52205 16-bits grayscale and 50981 16-bits grayscale
same,"Test Signal, Ubiquitin",gene Ubiquitin,59171 16-bits grayscale and 59613 16-bits grayscale
